A value given as a limit tells only on which side of the number the result lay.

Usually EC50 stands for the concentration that produces a half-maximal response.

For one assay, the target named is T1, hTLR7 (Homo sapiens, UniProt Q9NYK1).
T1 construct: host or cells: HEK-Blue hTLR7 (HEK293-derived reporter line)
T1 sequence (Q9NYK1 27-1049): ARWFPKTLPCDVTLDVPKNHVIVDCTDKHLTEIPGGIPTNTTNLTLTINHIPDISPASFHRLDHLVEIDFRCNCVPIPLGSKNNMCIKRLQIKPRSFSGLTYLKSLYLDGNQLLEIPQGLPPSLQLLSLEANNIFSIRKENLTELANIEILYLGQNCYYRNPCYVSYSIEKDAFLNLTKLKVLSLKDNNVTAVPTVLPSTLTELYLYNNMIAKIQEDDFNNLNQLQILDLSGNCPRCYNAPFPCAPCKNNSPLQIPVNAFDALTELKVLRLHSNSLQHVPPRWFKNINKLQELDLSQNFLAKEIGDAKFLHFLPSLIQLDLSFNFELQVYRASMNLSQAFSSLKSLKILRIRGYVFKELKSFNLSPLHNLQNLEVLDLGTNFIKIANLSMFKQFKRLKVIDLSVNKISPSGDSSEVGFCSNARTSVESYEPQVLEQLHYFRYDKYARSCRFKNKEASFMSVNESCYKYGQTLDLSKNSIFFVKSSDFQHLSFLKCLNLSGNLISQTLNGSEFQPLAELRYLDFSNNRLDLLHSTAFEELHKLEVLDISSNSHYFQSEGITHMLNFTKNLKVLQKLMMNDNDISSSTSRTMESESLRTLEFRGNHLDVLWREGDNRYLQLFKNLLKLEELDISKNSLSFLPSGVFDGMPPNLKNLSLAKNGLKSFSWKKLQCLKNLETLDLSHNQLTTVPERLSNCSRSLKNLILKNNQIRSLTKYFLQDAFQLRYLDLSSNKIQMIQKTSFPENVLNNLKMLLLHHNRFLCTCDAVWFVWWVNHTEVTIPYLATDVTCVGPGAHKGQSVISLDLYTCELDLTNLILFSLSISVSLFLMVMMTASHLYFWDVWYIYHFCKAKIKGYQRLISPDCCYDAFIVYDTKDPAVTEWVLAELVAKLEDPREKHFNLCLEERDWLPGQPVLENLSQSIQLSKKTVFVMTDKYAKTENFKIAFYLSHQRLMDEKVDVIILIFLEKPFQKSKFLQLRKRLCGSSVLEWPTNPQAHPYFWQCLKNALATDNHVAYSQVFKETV
In words: Activation activity test of hTLR7 (HEK-Blue hTLR7 cells, QUANTI-Blue OD650). It counts as cell-based. Conditions: 24 hours incubation, read-out: TLR7 (EC50). How it is done:
(§1) Effect Example 1: Activation Activity Test of hTLR7 and hTLR8
(§2) Cell lines: HEK-Blue™ hTLR7 and HEK-Blue™ hTLR8 (InvivoGen Co.)
(§3) Primary reagents: QUANTI-Blue™ (InvivoGen) and ATPlite 1 Step (PerkinElmer)
(§4) Primary instruments: Automatic Liquid Handling Workstation (Labcyte, Model: Echo), Cell Counter (Countstar, IC1000) and Multifunctional Enzyme Marker (Molecular Device, Flexstation III).
(§5) 2.1 The tested compounds were formulated into a 60 mM concentrated stock solution in DMSO and stored in a nitrogen cabinet.
(§6) 2.3 The T150 cultured cells were taken out from the CO2 incubator and the cell culture supernatant was discarded. The cells were washed with PBS once, followed by addition of about 10 mL of the culture solution. The cells were dissociated by patting the cell culture flask, and gently blown to even by a pipette.
(§7) The cells were counted, and the cell suspension was adjusted to 200,000 cells/mL by the culture solution. Thereafter, 200 μL of diluted cells was added to each well in a 96-well plate containing the compound (40,000 cells/well).
(§8) 2.4 The compounds and cells were incubated in a 5% CO2 incubator at 37° C. for 24 hours.
(§9) 2.5 Compound activity assay: 20 μl of the cell supernatant of each well after induction was added to a cell culture plate containing 180 μL of reagent QUANTI-Blue™, and incubated at 37° C. for 1.5 hours. Thereafter, the optical density absorption (OD650) of each well at 650 nm was measured using a Multifunctional Enzyme Marker: Flexstation III.
(§10) 2.6 Compound Activity: OD650 values were analyzed using GraphPad Prism software and the dose-response curves for the compound were fitted to calculate the EC50 values of the compound.

The target in another assay is T2, hTLR8 (Homo sapiens, UniProt Q9NR97).
T2 construct: host or cells: HEK-Blue hTLR8 (HEK293-derived reporter line)
T2 sequence (Q9NR97 27-1041): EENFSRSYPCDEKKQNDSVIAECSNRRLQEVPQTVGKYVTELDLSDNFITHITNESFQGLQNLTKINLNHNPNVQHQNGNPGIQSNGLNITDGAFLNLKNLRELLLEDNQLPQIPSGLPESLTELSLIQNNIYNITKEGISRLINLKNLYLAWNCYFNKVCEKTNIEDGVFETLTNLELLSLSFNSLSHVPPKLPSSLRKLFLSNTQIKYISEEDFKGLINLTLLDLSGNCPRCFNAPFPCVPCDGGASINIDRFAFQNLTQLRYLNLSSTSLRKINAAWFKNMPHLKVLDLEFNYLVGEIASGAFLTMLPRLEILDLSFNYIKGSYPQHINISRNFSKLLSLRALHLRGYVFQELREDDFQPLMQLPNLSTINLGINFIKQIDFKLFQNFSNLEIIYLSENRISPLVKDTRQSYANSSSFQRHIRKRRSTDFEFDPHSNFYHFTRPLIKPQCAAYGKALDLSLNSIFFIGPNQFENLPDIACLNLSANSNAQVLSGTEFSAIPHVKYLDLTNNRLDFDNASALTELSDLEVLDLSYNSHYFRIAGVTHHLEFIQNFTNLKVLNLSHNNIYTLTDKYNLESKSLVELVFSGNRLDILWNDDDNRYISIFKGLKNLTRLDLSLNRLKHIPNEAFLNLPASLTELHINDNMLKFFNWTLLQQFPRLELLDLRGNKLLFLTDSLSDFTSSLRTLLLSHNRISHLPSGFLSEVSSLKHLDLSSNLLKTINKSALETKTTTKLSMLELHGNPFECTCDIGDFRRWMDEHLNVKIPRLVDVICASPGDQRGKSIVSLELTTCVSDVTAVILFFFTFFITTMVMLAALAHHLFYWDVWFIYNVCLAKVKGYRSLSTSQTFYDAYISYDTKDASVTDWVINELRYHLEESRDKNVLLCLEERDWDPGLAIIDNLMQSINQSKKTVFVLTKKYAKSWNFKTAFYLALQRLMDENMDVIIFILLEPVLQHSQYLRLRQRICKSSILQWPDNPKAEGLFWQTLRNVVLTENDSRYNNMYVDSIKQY
In words: Activation activity test of hTLR8 (HEK-Blue hTLR8 cells, QUANTI-Blue OD650). It counts as cell-based. Conditions: for EC50: HEK-Blue hTLR8 cells, 24 hours incubation, read-out: TLR8 (EC50). How it is done:
as §1, §2, §3, §4, §5, §6, §7, §8, §9, §10

On to `COCCOc1ncc2[nH]c(=O)n(Cc3ccc(CN4CCCC4)cc3)c2n1` [Example 1, 2-(2-methoxyethoxy)-9-(4-(pyrrolidin-1-ylmethyl)benzyl)-7,9-dihydro-8H-purin-8-one], for which the half-maximal effective concentration (EC50) at hTLR7 is 1 to 10 µM; on hTLR8, above 100 µM. The matching figures for `COCCOc1ncc2[nH]c(=O)n(Cc3ccc(CN4CCC4)cc3)c2n1` [Example 2, 2-(2-methoxyethoxy)-9-(4-(azetidin-1-ylmethyl)benzyl)-7,9-dihydro-8H-purin-8-one]: 10 to 100 µM and above 100 µM. The matching figures for `COCCOc1ncc2[nH]c(=O)n(Cc3ccc(CN4CCCCC4)cc3)c2n1` [Example 3, 2-(2-methoxyethoxy)-9-(4-(piperidin-1-ylmethyl)benzyl)-7,9-dihydro-8H-purin-8-one]: 1 to 10 µM and above 100 µM. For `COCCOc1ncc2[nH]c(=O)n(Cc3ccc(CN4CCCCCC4)cc3)c2n1` [Example 4, 2-(2-methoxyethoxy)-9-(4-(azepan-1-ylmethyl)benzyl)-7,9-dihydro-8H-purin-8-one] the same measures were 1 to 10 µM and above 100 µM.

Turning to `COCCOc1ncc2[nH]c(=O)n(Cc3ccc(CN4CC[C@@H](F)C4)cc3)c2n1` [Example 5, (R)-9-(4-((3-fluoropyrrolidin-1-yl)methyl)benzyl)-2-(2-methoxyethoxy)-7,9-dihydro-8H-purin-8-one], the results for the EC50 at hTLR7 and on hTLR8 were 1 to 10 µM and above 100 µM, respectively. For `COCCOc1ncc2[nH]c(=O)n(Cc3ccc(CN4CC[C@@H](O)C4)cc3)c2n1` [Example 6, (R)-9-(4-((3-hydroxypyrrolidin-1-yl)methyl)benzyl)-2-(2-methoxyethoxy)-7,9-dihydro-8H-purin-8-one] the same measures were 10 to 100 µM and above 100 µM. The matching figures for `COCCOc1ncc2[nH]c(=O)n(Cc3ccc(CN4CCC[C@@H]4C(=O)OC)cc3)c2n1` [Example 7, methyl (4-((2-(2-methoxyethoxy)-8-oxo-7,8-dihydro-9H-purin-9-yl)methyl)benzyl)-D-pyrrolidine-2-carboxylate]: 10 to 100 µM and above 100 µM. The matching figures for `COCCOc1ncc2[nH]c(=O)n(Cc3ccc(CN4CCC[C@H]4C(=O)OC)cc3)c2n1` [Example 8, methyl (4-((2-(2-methoxyethoxy)-8-oxo-7,8-dihydro-9H-purin-9-yl)methyl)benzyl)-L-pyrrolidine-2-carboxylate]: 10 to 100 µM and above 100 µM. As to `COCCOc1ncc2[nH]c(=O)n(Cc3ccc(CN(C)C)cc3)c2n1` [Example 9, 9-(4-((dimethylamino)methyl)benzyl)-2-(2-methoxyethoxy)-7,9-dihydro-8H-purin-8-one], the EC50 on hTLR7 was 1 to 10 µM; at hTLR8, above 100 µM.

As to `CCN(CC)Cc1ccc(Cn2c(=O)[nH]c3cnc(OCCOC)nc32)cc1` [Example 10], the EC50 at hTLR7 was 1 to 10 µM; on hTLR8, above 100 µM.

As to `COCCOc1ncc2[nH]c(=O)n(Cc3ccc(CN4CCC5(CC4)COC5)cc3)c2n1` [Example 11, 9-(4-((2-oxa-7-azaspiro[3.5]nonan-7-yl)methyl)benzyl)-2-(2-methoxyethoxy)-7,9-dihydro-8H-purin-8-one], the 50% effective concentration (EC50) is 1 to 10 µM at hTLR7 and above 100 µM at hTLR8.

As to `COCCOc1ncc2[nH]c(=O)n(Cc3ccc(CN4C[C@H]5CN(C)C[C@H]5C4)cc3)c2n1` [Example 12], the 50% effective concentration (EC50) is 1 to 10 µM on hTLR7 and above 100 µM at hTLR8. The matching figures for `COCCOc1ncc2[nH]c(=O)n(Cc3ccc(CN4CC5CCC4C5)cc3)c2n1` (centres unmarked) [Example 13, 2-(2-methoxyethoxy)-9-(4-((2-aza-bicyclo[2,2,1]heptan-2-yl)methyl)benzyl)-7,9-dihydro-8H-purin-8-one]: 1 to 10 µM and above 100 µM. For `COCCOc1ncc2[nH]c(=O)n(Cc3ccc(C(C)N4CCCC4)cc3)c2n1` (centres unmarked) [Example 14, 2-(2-methoxyethoxy)-9-(4-(1-(pyrrolidin-1-yl)ethyl)benzyl)-7,9-dihydro-8H-purin-8-one] the same measures were 0.001 to 1 µM and above 100 µM. For `COCCOc1ncc2[nH]c(=O)n(Cc3ccc(C(C)N4CCCCC4)cc3)c2n1` (centres unmarked) [Example 15, 2-(2-methoxyethoxy)-9-(4-(1-(piperidin-1-yl)ethyl)benzyl)-7,9-dihydro-8H-purin-8-one] the same measures were 0.001 to 1 µM and above 100 µM. Turning to `COCCOc1ncc2[nH]c(=O)n(Cc3ccc(C(C)N4CCCCCC4)cc3)c2n1` (centres unmarked) [Example 16, 2-(2-methoxyethoxy)-9-(4-(1-(azacycloheptane-1-yl)ethyl)benzyl)-7,9-dihydro-8H-purin-8-one], the half-maximal effective concentration (EC50) on hTLR7 is 0.001 to 1 µM; on hTLR8, above 100 µM. The matching figures for `CCC(c1ccc(Cn2c(=O)[nH]c3cnc(OCCOC)nc32)cc1)N1CCCC1` (centres unmarked) [Example 17]: 1 to 10 µM and above 100 µM.

Take `COCCOc1ncc2[nH]c(=O)n(Cc3cccc(CN4CCCC4)c3)c2n1` [Example 18]: the values for the EC50 on hTLR7 and on hTLR8 were 1 to 10 µM and above 100 µM, respectively. With `COCCOc1ncc2[nH]c(=O)n(Cc3cccc(CN4CCC4)c3)c2n1` [Example 19, 2-(2-methoxyethoxy)-9-(3-(azetidin-1-ylmethyl)benzyl)-7,9-dihydro-8H-purin-8-one], the values for the EC50 on hTLR7 and on hTLR8 were 1 to 10 µM and above 100 µM, respectively. The matching figures for `COCCOc1ncc2[nH]c(=O)n(Cc3cccc(CN4CCCCC4)c3)c2n1` [Example 20, 2-(2-methoxyethoxy)-9-(3-(piperidin-1-ylmethyl)benzyl)-7,9-dihydro-8H-purin-8-one]: 10 to 100 µM and above 100 µM. Regarding `CCOCc1nc2c(N)nc3ccccc3c2n1CC(C)(C)O` [Example R848, reference compound], the “agonistic activity against TLR8” value on hTLR8 (in words, from Table 1) is given as “strong agonistic activity”.
